Data on twelve molecules can be found in patent US20220324835A1 (Nurix Therapeutics, Inc., priority 2018, published 2022).

In assay [1] the target is T1, Cbl-b (Homo sapiens, UniProt Q13191). Nature of the assay: Cbl-b inhibition assay (Cbl-b activity assay, FRET, Biological Example 1; 100 mM NaCl, 60 nM Src kinase). The format is biochemical. As to conditions: upper bound stated in text lists; read-out: IC50 values in the Cbl-b inhibition assay of Biological Example 1. Put shortly:
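FRET read-out: loss of signal marks inhibition. Mix = biotin-Avi-Cbl-b (N-term), Src kinase, UbcH5B-Ub(Bodipy-FL, irreversible conjugate), streptavidin-Tb, assay buffer.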

Assay [2] deals with T-cell. Nature of the assay: IL-2 secretion from T-cells co-stimulated with anti-CD3 and anti-CD28 antibody (Biological Example 2). The format is cell-based, human. As to conditions: Homo sapiens, T-cell, fold change over baseline (anti-CD3/anti-CD28 stimulated T-cells without inhibitor), read-out: IL-2 secretion Anti-CD3/Anti-CD28 stimulation; for fold induction at 0.3 µM: 0.3 μM Cbl-b inhibitor; for fold induction at 1 µM: 1 μM Cbl-b inhibitor. Summed up:
(§1)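 T-cells were stimulated with anti-CD3 antibody alone or with anti-CD28 antibody, in the presence or absence of Cbl-b inhibitor. IL-2 secretion or CD25 surface staining was measured, and values expressed as fold over the uninhibited baseline […].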

Assay [3] has as its system T-cell. Nature of the assay: IL-2 secretion from T-cells stimulated with anti-CD3 antibody alone (Biological Example 2). The format is cell-based, human. As to conditions: Homo sapiens, T-cell; 1 μM Cbl-b inhibitor; fold change over baseline (anti-CD3/anti-CD28 stimulated T-cells without inhibitor); read-out: IL-2 secretion Anti-CD3 stimulation.
The test system of assay [4] is T-cell. Nature of the assay: CD25 cell surface staining on T-cells co-stimulated with anti-CD3 and anti-CD28 antibody (Biological Example 2). The format is cell-based, human. To be noted: Homo sapiens, T-cell, fold change over baseline (anti-CD3/anti-CD28 stimulated T-cells without inhibitor), read-out: CD25 staining Anti-CD3/Anti-CD28 stimulation; for fold induction at 0.3 µM: 0.3 μM Cbl-b inhibitor; for fold induction at 1 µM: 1 μM Cbl-b inhibitor. Summed up: as §1

Assay [5] deals with T-cell. Nature of the assay: CD25 cell surface staining on T-cells stimulated with anti-CD3 antibody alone (Biological Example 2). To be noted: Homo sapiens, T-cell; 1 μM Cbl-b inhibitor; fold change over baseline (anti-CD3/anti-CD28 stimulated T-cells without inhibitor); read-out: CD25 staining Anti-CD3 stimulation. Format: cell-based, human.
Assay [6] deals with T1, Cbl-b. Put plainly: Cbl-b activity assay (Cbl-b inhibition assay), TR-FRET of Cbl-b interaction with UbcH5B-Ub. Format: biochemical. To be noted: assay buffer with 100 mM NaCl, 60 nM Src kinase; read-out: Cbl-b activity IC50. Put shortly:
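UbcH5B (C85K) conjugated to N-terminally Bodipy-Fluorescein-labeled ubiquitin served as the fluorescent partner. After compound preincubation, Src kinase (60 nM) with 1 mM ATP and 5 mM MgCl2 (final) was added for 1.5 h, followed by a further 1 h incubation. Some values were obtained with 50 mM NaCl and 30 nM Src.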

A value given as a limit tells only on which side of the number the result lay.

T1 sequence (Q13191 36-427): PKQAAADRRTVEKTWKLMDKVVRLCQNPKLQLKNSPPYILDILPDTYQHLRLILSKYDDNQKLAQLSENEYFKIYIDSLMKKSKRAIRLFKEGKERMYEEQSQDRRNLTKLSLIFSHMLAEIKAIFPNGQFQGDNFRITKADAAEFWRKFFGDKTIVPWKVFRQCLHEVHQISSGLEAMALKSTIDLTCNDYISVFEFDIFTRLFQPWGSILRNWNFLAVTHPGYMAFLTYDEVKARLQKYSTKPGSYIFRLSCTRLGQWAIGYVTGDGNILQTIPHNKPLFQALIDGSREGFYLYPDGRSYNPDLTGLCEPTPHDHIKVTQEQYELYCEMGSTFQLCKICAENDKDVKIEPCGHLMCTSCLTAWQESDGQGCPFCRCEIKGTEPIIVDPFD

By IC50 is commonly meant the point on the concentration scale where inhibition reaches its midpoint. As to `CC(c1cc2c(c(C3CC3)n1)CN(c1cccc(C3(Cc4nncn4C)COC3)c1)C2=O)N1CCCCC1` (stereo not drawn) [Example 587, 4-Cyclopropyl-2-(3-(3-((4-methyl-4H-1,2,4-triazol-3-yl)methyl)oxetan-3-yl)phenyl)-6-(l-(piperidin-1-yl)ethyl)-2,3-dihydro-1H-pyrrolo[3,4-c]pyridin-1-one], the IC50 on Cbl-b [1] was not above 100 nM; at Cbl-b [6] it was less than 100 nM. Besides, the figures for the fold induction at 0.3 µM in the assay on T-cell [2] and with T-cell [4] were 5 to 7.5 and more than 1.76, respectively. The fold induction at 1 µM with T-cell [2] was more than 7.5; with T-cell [3], more than 0.201; in the assay with T-cell [4], more than 1.76; in the assay on T-cell [5], 0.601 to 0.8.
On to `CC1C(C(F)(F)F)CCN1Cc1cc2c(c(C(F)(F)F)c1)CN(c1cccc(C3(Cc4nncn4C)COC3)c1)C2=O` (stereo not drawn) [Example 588, 6-((2-Methyl-3-(trifluoromethyl)pyrrolidin-1-yl)methyl)-2-(3-(3-((4-methyl-4H-1,2,4-triazol-3-yl)methyl)oxetan-3-yl)phenyl)-4-(trifluoromethyl)isoindolin-1-one], for which the IC50 on Cbl-b [1] was not above 100 nM; on Cbl-b [6] it was less than 100 nM. For the same molecule, the results for the fold induction at 0.3 µM in the assay on T-cell [2] and with T-cell [4] were 5 to 7.5 and 1.01 to 1.3, respectively. The fold induction at 1 µM in the assay with T-cell [2] is more than 7.5; with T-cell [3], 0.051 to 0.1; with T-cell [4], 1.31 to 1.5; in the assay on T-cell [5], more than 1.
Take `Cn1cnnc1CC1(c2cccc(NC(=O)c3cc(CN4CCCCC4)nc(C4CC4)n3)c2)COC1` [Example 589, 2-Cyclopropyl-N-(3-(3-((4-methyl-4H-1,2,4-triazol-3-yl)methyl)oxetan-3-yl)phenyl)-6-(piperidin-1-ylmethyl)pyrimidine-4-carboxamide]: the IC50 on Cbl-b [1] was not above 100 nM; at Cbl-b [6] it was less than 100 nM. In addition, the results for the fold induction at 0.3 µM in the assay with T-cell [2] and in the assay with T-cell [4] were more than 7.5 and more than 1.76, respectively. Also, the fold induction at 1 µM is more than 7.5 in the assay on T-cell [2], more than 0.201 in the assay with T-cell [3], more than 1.76 with T-cell [4] and more than 1 in the assay on T-cell [5].
Take `CC(c1cc(C(=O)Nc2cccc(C3(Cc4nncn4C)COC3)c2)nc(C2CC2)n1)N1CCCC1` (stereo not drawn) [Example 593, 2-Cyclopropyl-N-(3-(3-((4-methyl-4H-1,2,4-triazol-3-yl)methyl)oxetan-3-yl)phenyl)-6-(l-(pyrrolidin-1-yl)ethyl)pyrimidine-4-carboxamide]: the IC50 is not above 100 nM on Cbl-b [1] and less than 100 nM at Cbl-b [6]. Moreover, the fold induction at 0.3 µM was more than 7.5 in the assay on T-cell [2] and 1.31 to 1.5 in the assay with T-cell [4]. Further, the fold induction at 1 µM in the assay on T-cell [2] was more than 7.5; with T-cell [3] it was more than 0.201; in the assay with T-cell [4], 1.31 to 1.5; in the assay with T-cell [5], more than 1.
In the case of `Cn1cnnc1CC1(c2cccc(N3Cc4c(cc(N5CC(C(F)F)C5)cc4C(F)(F)F)C3=O)c2)COC1` [Example 594, 6-(3-(Difluoromethyl)azetidin-1-yl)-2-(3-(3-((4-methyl-4H-1,2,4-triazol-3-yl)methyl)oxetan-3-yl)phenyl)-4-(trifluoromethyl)isoindolin-1-one], the IC50 on Cbl-b [1] is not above 100 nM; at Cbl-b [6], less than 100 nM. In addition, the fold induction at 0.3 µM with T-cell [2] fell in the range of 2.51 to 5; with T-cell [4], 1.01 to 1.3. The fold induction at 1 µM in the assay on T-cell [2] is 5 to 7.5; in the assay on T-cell [3], 0.051 to 0.1; in the assay with T-cell [4], 1.01 to 1.3; with T-cell [5], 0.801 to 1.
Take `Cn1cnnc1CC1(c2cccc(N3Cc4c(cc(OC(F)F)cc4C(F)(F)F)C3=O)c2)COC1` [Example 595, 6-(Difluoromethoxy)-2-(3-(3-((4-methyl-4H-1,2,4-triazol-3-yl)methyl)oxetan-3-yl)phenyl)-4-(trifluoromethyl)isoindolin-1-one]: the 50% inhibitory concentration (IC50) at Cbl-b [1] was not above 100 nM; at Cbl-b [6], less than 100 nM. Also, the figures for the fold induction at 0.3 µM in the assay with T-cell [2] and in the assay on T-cell [4] were 2.51 to 5 and 1.01 to 1.3, respectively. The fold induction at 1 µM fell in the range of 5 to 7.5 in the assay with T-cell [2], 0.051 to 0.1 with T-cell [3], 1.31 to 1.5 with T-cell [4] and 0.801 to 1 in the assay with T-cell [5].
Consider `Cc1cc(C(=O)Nc2cccc(C3(Cc4nncn4C)COC3)c2)n2nccc2n1` [Example 596, 5-Methyl-N-(3-(3-((4-methyl-4H-1,2,4-triazol-3-yl)methyl)oxetan-3-yl)phenyl)pyrazolo[1,5-a]pyrimidine-7-carboxamide], for which the IC50 is not above 300 nM at Cbl-b [1] and 100 to 300 nM on Cbl-b [6]. Besides, the results for the fold induction at 0.3 µM in the assay on T-cell [2] and in the assay with T-cell [4] were 1.01 to 2.5 and 1.01 to 1.3, respectively. Besides, the fold induction at 1 µM is 1.01 to 2.5 in the assay on T-cell [2], less than 0.05 in the assay with T-cell [3], 1.01 to 1.3 in the assay on T-cell [4] and 0.601 to 0.8 in the assay with T-cell [5].
`Cc1cc(C(=O)Nc2cccc(C3(Cc4nncn4C)COC3)c2)n2nc(C(F)(F)F)cc2n1` [Example 598, 5-Methyl-N-(3-(3-((4-methyl-4H-1,2,4-triazol-3-yl)methyl)oxetan-3-yl)phenyl)-2-(trifluoromethyl)pyrazolo[1,5-a]pyrimidine-7-carboxamide]: the IC50 is not above 300 nM on Cbl-b [1] and 100 to 300 nM on Cbl-b [6]. The fold induction at 0.3 µM in the assay on T-cell [2] fell in the range of 1.01 to 2.5; in the assay on T-cell [4], 1.01 to 1.3. The fold induction at 1 µM in the assay with T-cell [2] was 1.01 to 2.5; with T-cell [3] it was less than 0.05; in the assay with T-cell [4], 1.01 to 1.3; with T-cell [5] it was 0.601 to 0.8.
Take `Cc1cnn2c(C(=O)Nc3cccc(C4(Cc5nncn5C)COC4)c3)cc(C(F)(F)F)nc12` [Example 599, 3-methyl-N-(3-(3-((4-methyl-4H-1,2,4-triazol-3-yl)methyl)oxetan-3-yl)phenyl)-5-(trifluoromethyl)pyrazolo[1,5-a]pyrimidine-7-carboxamide]: the values for the IC50 at Cbl-b [1] and on Cbl-b [6] were not above 1000 nM and 301 to 1000 nM, respectively. For the same molecule, the fold induction at 0.3 µM in the assay with T-cell [2] was less than 1; in the assay with T-cell [4], 1.01 to 1.3. Further, the fold induction at 1 µM was 1.01 to 2.5 in the assay with T-cell [2], less than 0.05 with T-cell [3], 1.01 to 1.3 in the assay on T-cell [4] and 0.601 to 0.8 with T-cell [5].
For `Cn1cnnc1CC1(c2cccc(N3Cc4c(cc(N5CC(C(F)(F)F)C5)cc4C(F)(F)F)C3=O)c2)COC1` [Example 600, 2-(3-(3-((4-methyl-4H-1,2,4-triazol-3-yl)methyl)oxetan-3-yl)phenyl)-4-(trifluoromethyl)-6-(3-(trifluoromethyl)azetidin-1-yl)isoindolin-1-one], the IC50 is not above 100 nM at Cbl-b [1] and less than 100 nM on Cbl-b [6]. Moreover, the fold induction at 0.3 µM in the assay with T-cell [2] was in the range of 2.51 to 5; in the assay with T-cell [4], 1.01 to 1.3. For the same molecule, the fold induction at 1 µM with T-cell [2] was more than 7.5; in the assay on T-cell [3], 0.051 to 0.1; in the assay with T-cell [4], 1.01 to 1.3; in the assay with T-cell [5], more than 1.
As to `Cn1cnnc1CC1(c2cccc(N3Cc4c(cc(N5CCC(C(F)F)C5)cc4C(F)(F)F)C3=O)c2)COC1` (stereo not drawn) [Example 601, 6-(3-(difluoromethyl)pyrrolidin-1-yl)-2-(3-(3-((4-methyl-4H-1,2,4-triazol-3-yl)methyl)oxetan-3-yl)phenyl)-4-(trifluoromethyl)isoindolin-1-one], the 50% inhibitory concentration (IC50) was not above 100 nM on Cbl-b [1] and less than 100 nM on Cbl-b [6]. Further, the values for the fold induction at 0.3 µM in the assay with T-cell [2] and in the assay on T-cell [4] were 1.01 to 2.5 and 1.01 to 1.3, respectively. Besides, the fold induction at 1 µM is 2.51 to 5 in the assay with T-cell [2], less than 0.05 with T-cell [3], 1.01 to 1.3 in the assay on T-cell [4] and 0.601 to 0.8 with T-cell [5].
Consider `Cn1cnnc1CC1(c2cccc(N3Cc4c(cc(N5CC6(C5)CC(F)(F)C6)cc4C(F)(F)F)C3=O)c2)COC1` [Example 602, 6-(6,6-difluoro-2-azaspiro[3.3]heptan-2-yl)-2-(3-(3-((4-methyl-4H-1,2,4-triazol-3-yl)methyl)oxetan-3-yl)phenyl)-4-(trifluoromethyl)isoindolin-1-one], for which the IC50 on Cbl-b [1] is not above 100 nM; on Cbl-b [6], less than 100 nM. For the same molecule, the fold induction at 0.3 µM in the assay on T-cell [2] fell in the range of 5 to 7.5; with T-cell [4] it was 1.01 to 1.3. For the same molecule, the fold induction at 1 µM with T-cell [2] was more than 7.5; with T-cell [3], 0.101 to 0.15; in the assay on T-cell [4] it was 1.31 to 1.5; in the assay on T-cell [5], more than 1.
